The values below come from US20060247439A1, “Mchir antagonists” (AstraZeneca AB, priority 2002, published 2006).

The target in the assay is T1, human Melanin concentrating hormone receptor 1 (MCH1r) (Homo sapiens, UniProt Q99705).
T1 construct: expressed in transfected cells; membranes)
T1 sequence (Q99705 whole entry): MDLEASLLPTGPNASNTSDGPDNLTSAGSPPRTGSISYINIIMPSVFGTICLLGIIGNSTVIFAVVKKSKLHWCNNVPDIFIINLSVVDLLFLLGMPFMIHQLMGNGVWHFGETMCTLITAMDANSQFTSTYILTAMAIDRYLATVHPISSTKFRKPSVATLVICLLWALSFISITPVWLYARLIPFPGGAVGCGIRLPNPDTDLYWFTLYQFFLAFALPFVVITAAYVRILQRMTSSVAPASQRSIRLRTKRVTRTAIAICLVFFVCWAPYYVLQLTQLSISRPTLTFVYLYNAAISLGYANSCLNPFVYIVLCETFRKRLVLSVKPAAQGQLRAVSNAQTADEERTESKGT
In words: MCH1 Receptor Radioligand Binding. The conditions noted are these: membranes from HEK293 cells stably expressing human MCH1r; radioligand 125I-MCH. How it is done:
MCH1 Receptor Radioligand Binding.
Assays were performed on membranes prepared from HEK293 cells stably expressing the human Melanin concentrating hormone receptor 1 (MCH1r) (Lembo et al. Nature Cell Biol 1 267-271). Assays were performed in a 96-well plate format in a final reaction volume of 200 μl per well. Each well contained 6,1 μg of membrane proteins diluted in binding buffer (50 mM Tris, 3 mM MgCl2, 0.05% bovine serum albumin (BSA) and the radioligand ^125I-MCH (IM344 Amersham) was added to give 10 000 cpm (counts per Minute) per well Each well contained 2 μl of the appropriate concentration of competitive antagonist prepared in DMSO and left to stand at room temperature for 60 minutes. Non-specific binding was determined as that remaining following incubation with […] MCH (Melanin concentrating hormone, H-1482 Bachem). The reaction was terminated by transfer of the reaction to GF/A filters using a Micro96 Harvester (Skatron Instruments, Norway). Filters were washed with assay buffer; Radioligand retained on the filters was quantified using a1450 Microbeta TRILUX (Wallac, Finland).
Non-specific binding was subtracted from all values determined. Maximum binding was that determined in the absence of any competitor following subtraction of the value determined for non-specific binding. Binding of compounds at various concentrations was plotted according to the equation y=A+(B−A)/1+((C/x)ˆD))) and IC50 estimated where […]
A is the bottom plateau of the curve i.e. the final minimum y value
B is the top of the plateau of the curve i.e. the final maximum y value
C is the x value at the middle of the curve. This represents the log EC50 value when A+B=100 […]
x is the original known x values. y is the original known y values.
The IC50 is the concentration that gives 50% inhibition. A higher IC50 goes with a need for much substance. `Clc1ccc(CNC2CCC(Nc3ccc4ccccc4n3)CC2)cc1Cl` (mixture of isomers) [Example 29, N-[(3,4-Dichlorophenyl)methyl]-N′-(2-quinolinyl)-1,4-cyclohexanediamine] came in with an IC50 of 400 nM.
Then `COc1ccc2nc(NC3CCCC(NCc4cc5ccccc5o4)C3)cc(C)c2c1` (mixture of isomers) [Example 53, N-(1-benzofuran-2-ylmethyl)-N′-(6-methoxy-4-methylquinolin-2-yl)cyclohexane-1,3-diamine], with 560 nM; and `COc1ccc2nc(NCCCNCc3ccsc3)cc(C)c2c1` [Example 2, N-(6-Methoxy-4-methyl-2-quinolinyl)-N′-(3-thienylmethyl)-1,3-propanediamine], with 10 nM.
